For 2 molecules, IC50 results are on record in patent US20260184712A1, “Heterocyclic Compounds as ENT Inhibitors and Compounds for Use in the Treatment of Cancers” (iTeos Belgium SA, priority 2022, published 2026).

Holding throughout (format): cell-based
Experiment [1] has as its system stimulated primary human T cells. In words: T cell proliferation assay, Condition B (X-VIVO15, 2% HSA and 0.1% AAG). The following applies: Condition B: X-VIVO15 medium containing HSA and α1-Acid Glycoprotein, anti-CD3/anti-CD28 beads, ATP, 4 days, CFSE-lo T cells. The method in brief: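 CFSE-labelled CD3+ T cells from healthy donors (2×10^4/well) in X-VIVO15 with 2% HSA and 0.1% AAG were stimulated with anti-CD3/CD28 beads. After 30 min pre-incubation with inhibitor, ATP was added and cells were cultured 4 days at 37° C. Flow cytometry gave % CFSE^lo cells, with IC50/IC90 and pICF from curve fits.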

The test system is the same in experiment [2]. In words: T cell proliferation assay, Condition A (X-VIVO15). The following applies: Condition A: X-VIVO15 medium, anti-CD3/anti-CD28 beads, ATP, 4 days, CFSE-lo T cells. The method in brief:
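CFSE-labelled human CD3+ T cells (2×10^4/well) in serum-free X-VIVO15 were activated with anti-CD3/CD28 beads (1 bead:2 cells), pre-incubated 30 min with inhibitor, then cultured with 100 uM ATP for 4 days at 37 °C. Flow cytometry measured %CFSE^lo cells, and IC50/IC90 came from log-concentration curve fits.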

Another experiment deals with T1, Human ENT2 (Homo sapiens, UniProt Q14542).
T1 construct: expressed in transfected cells
T1 sequence (Q14542 1-456): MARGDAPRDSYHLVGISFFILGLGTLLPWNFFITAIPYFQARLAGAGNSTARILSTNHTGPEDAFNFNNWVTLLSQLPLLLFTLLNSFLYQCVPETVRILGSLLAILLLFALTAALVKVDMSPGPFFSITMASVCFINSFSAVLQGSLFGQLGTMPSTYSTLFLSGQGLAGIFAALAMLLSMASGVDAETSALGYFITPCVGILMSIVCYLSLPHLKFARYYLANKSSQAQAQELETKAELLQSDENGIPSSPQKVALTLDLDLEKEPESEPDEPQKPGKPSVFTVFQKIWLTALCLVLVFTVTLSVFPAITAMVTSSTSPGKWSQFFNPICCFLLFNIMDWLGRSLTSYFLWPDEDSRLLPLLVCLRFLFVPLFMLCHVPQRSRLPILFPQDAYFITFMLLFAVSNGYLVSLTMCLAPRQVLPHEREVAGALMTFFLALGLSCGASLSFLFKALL
In words: Adenosine uptake assay, ENT2-mediated transport in MDCKII cells. The following applies: MDCKIIENT2-LV cells, probe adenosine 0.5 μM, pre-incubation 30 min, incubation 10 min. As to the method: The goal of this study was to determine the potency and selectivity of ENT1 inhibitors by measuring ENT1 and ENT2-mediated transport using an in vitro cellular uptake assay.
Human ENT1 and ENT2 transporters were stably expressed in Madin-Darby Canine Kidney II (MDCKII) cells via transduction. Cell lines overexpressing the relevant ENT1 or ENT2 molecules were preincubated with a dose range of the relevant compound for 30 minutes before introduction of the specific substrate at the concentration indicated in the Table assay parameters below. The transporter assay was conducted for the time specified in the Table assay parameters before the specific uptake of the substrate into the cells was quantified. Specific uptake was determined by comparing the uptake from the cells treated with the relevant compounds and the uptake by cells not overexpressing the transporter in question.
Specific uptake for each concentration of the test sample was normalized to the DMSO control value to generate a relative accumulation value (or relative transporter activity). Data were plotted against the log molar concentration of the test reagent used. IC50 values were generated with Prism version 9.4.1 and the following function: log(inhibitor) vs. response—Variable slope (four parameters).

Broadly, the IC50 is the midpoint of a concentration-inhibition curve. `COc1cc(C(=O)OCCCN2CCCN(CCCOC(=O)c3cc(OC)c(OC)c(OC)c3)CC2)cc(OC)c1OC` [Dilazep, dilazep, reference compound]: the IC50 in experiment [1] (Homo sapiens, T-cell, 96 h) is 20 to 500 nM; in experiment [2] (Homo sapiens, T-cell, 96 h), 1 to 20 nM; against Human ENT2, above 1000 nM.

In the case of `O=[N+]([O-])c1ccc(CSc2ncnc3c2ncn3[C@@H]2O[C@H](CO)[C@@H](O)[C@H]2O)cc1` [NBMPR, reference compound], the IC50 was 20 to 500 nM in experiment [1], 1 to 20 nM in experiment [2] and above 1000 nM at Human ENT2.
